Source: patent US20230416205A1, “COMPOUNDS, COMPOSITIONS, AND METHODS” (Denali Therapeutics Inc, priority 2020, published 2023)
Read-outs that look alike come from different tables or passages of the source.

System: NLRP3
Test: IL-1β secretion assay in PMA-differentiated, LPS/nigericin-stimulated THP-1 cells (384-well, ELISA read-out)
Format: cell-based, human
How it was run: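 THP-1 cells differentiated with PMA (5 ng/mL, 40 h), primed in serum-free medium with 25 ng/mL LPS for 2 h, treated with compounds 1 h (0.5% DMSO), then stimulated with nigericin for 2 h at 37 °C. Supernatant IL-1β measured by ELISA; responses normalized to LPS+5 μM nigericin and LPS-only controls.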

[1] = Homo sapiens, THP-1, IL-1β secretion, PMA-differentiated THP-1 cells, LPS then nigericin stimulation, ELISA read at 450 nm, read-out: Activity
[2] = Homo sapiens, THP-1, Table 4, IL-1β secretion, LPS/nigericin-stimulated THP-1 cells, read-out: IC50

Structure (SMILES): C[C@]1(O)C[C@@H](NC(=O)CN2CC3(CC3)c3cc(Br)ccc3C2=O)C1 [Example 19, 2-(6-bromo-1-oxospiro[3H-isoquinoline-4,1′-cyclopropane]-2-yl)-N-(cis-3-hydroxy-3-methylcyclobutyl)acetamide]
- IC50 [1]: < 10 µM
- IC50 [2]: 0.153 µM

Structure (SMILES): O=C(CN1CC2(CC2)c2cc(Br)ccc2C1=O)NC1CCn2nccc2C1 (stereo not drawn) [Example 20]
- IC50 [1]: < 10 µM
- IC50 [2]: 3.19 µM

Structure (SMILES): CN1CC(NC(=O)CN2CC3(CC3)c3cc(Br)ccc3C2=O)CCC1=O (stereo not drawn) [Example 21, 2-(6-bromo-1-oxo-spiro[3H-isoquinoline-4,1′-cyclopropane]-2-yl)-N-(1-methyl-6-oxo-3-piperidyl)acetamide]
- IC50 [1]: < 10 µM
- IC50 [2]: 6.1 µM

Structure (SMILES): CN1CCC(NC(=O)CN2CC3(CC3)c3cc(Br)ccc3C2=O)CC1=O (stereo not drawn) [Example 22, 2-(6-bromo-1-oxo-spiro[3H-isoquinoline-4,1′-cyclopropane]-2-yl)-N-(1-methyl-2-oxo-4-piperidyl)acetamide]
- IC50 [1]: 10 to 15 µM
- IC50 [2]: 10.9 µM

Structure (SMILES): O=C(CN1CC2(CC2)c2cc(Br)ccc2C1=O)NC1CC2(CC2)C1 [Example 23, 2-(6-bromo-1-oxo-spiro[3H-isoquinoline-4,1′-cyclopropane]-2-yl)-N-spiro[2.3]hexan-5-yl-acetamide]
- IC50 [1]: < 10 µM
- IC50 [2]: 1.88 µM

Structure (SMILES): O=C(CN1CC2(CC2)c2cc(Br)ccc2C1=O)NC1CCOC(C2CC2)C1 (stereo not drawn) [Example 24, 2-(6-bromo-1-oxo-spiro[3H-isoquinoline-4,1′-cyclopropane]-2-yl)-N-(2-cyclopropyltetrahydropyran-4-yl)acetamide]
- IC50 [1]: < 10 µM
- IC50 [2]: 7.17 µM

Structure (SMILES): COCCN1CCCC(NC(=O)CN2CC3(CC3)c3cc(Br)ccc3C2=O)C1 (stereo not drawn) [Example 25, 2-(6-bromo-1-oxo-spiro[3H-isoquinoline-4,1′-cyclopropane]-2-yl)-N-[1-(2-methoxyethyl)-3-piperidyl]acetamide]
- IC50 [1]: < 10 µM
- IC50 [2]: 3.57 µM

Structure (SMILES): CC1(C)CN(CC(=O)N[C@@H]2CCCN(C3CCC3)C2)C(=O)c2ccc(Br)cc21 [Example 26, (R)-2-(6-bromo-4,4-dimethyl-1-oxo-3,4-dihydroisoquinolin-2(1H)-yl)-N-(1-cyclobutylpiperidin-3-yl)acetamide]
- IC50 [1]: < 10 µM
- IC50 [2]: 0.445 µM

Structure (SMILES): O=C(CN1CC2(CC2)c2cc(C(F)(F)F)ccc2C1=O)Nc1ncccn1 [Example 27, 2-[1-oxo-6-(trifluoromethyl)spiro[3H-isoquinoline-4,1′-cyclopropane]-2-yl]-N-pyrimidin-2-yl-acetamide]
- IC50 [1]: < 10 µM
- IC50 [2]: 0.291 µM

Structure (SMILES): O=C(CN1CC2(CC2)c2cc(C(F)(F)F)ccc2C1=O)Nc1ncc(F)cn1 [Example 28]
- IC50 [1]: < 10 µM
- IC50 [2]: 0.373 µM

Structure (SMILES): CC1CC12CN(CC(=O)Nc1ncccn1)C(=O)c1ccc(C(F)(F)F)cc12 (stereo not drawn) [Example 29, 2-[2′-methyl-1-oxo-6-(trifluoromethyl)spiro[3H-isoquinoline-4,1′-cyclopropane]-2-yl]-N-pyrimidin-2-yl-acetamide]
- IC50 [1]: < 10 µM
- IC50 [2]: 0.392 µM

Structure (SMILES): CCC1(C)CN(CC(=O)Nc2ncccn2)C(=O)c2ccc(C(F)(F)F)cc21 (stereo not drawn) [Example 30, 2-[4-ethyl-4-methyl-1-oxo-6-(trifluoromethyl)-3H-isoquinolin-2-yl]-N-pyrimidin-2-ylacetamide]
- IC50 [1]: > 15 µM
- IC50 [2]: 15.1 µM

Structure (SMILES): O=C(CN1CC2(CC2)c2nc(C(F)(F)F)ccc2C1=O)Nc1ncccn1 [Example 31, 2-[5-oxo-2-(trifluoromethyl)spiro[7H-1,6-naphthyridine-8,1′-cyclopropane]-6-yl]-N-pyrimidin-2-ylacetamide]
- IC50 [1]: < 10 µM
- IC50 [2]: 2.41 µM

Structure (SMILES): O=C(CN1CC2(CCC2)c2cc(Br)ccc2C1=O)Nc1ncccn1 [Example 32, 2-(6-bromo-1-oxo-spiro[3H-isoquinoline-4,1′-cyclobutane]-2-yl)-N-pyrimidin-2-yl-acetamide]
- IC50 [1]: < 10 µM
- IC50 [2]: 1.95 µM

Structure (SMILES): O=C(CN1CC2(CC2)c2cc(OC(F)F)ccc2C1=O)Nc1ncccn1 [Example 33, N-(pyrimidin-2-yl)-2-[6-(difluoromethoxy)-1-oxospiro[3H-isoquinoline-4,1′-cyclopropane]-2-yl]acetamide]
- IC50 [1]: < 10 µM
- IC50 [2]: 1.28 µM

Structure (SMILES): O=C(CN1CC2(CC2)c2cc(C3CC3)ccc2C1=O)Nc1ncc(Cl)cn1 [Example 34, N-(5-chloropyrimidin-2-yl)-2-(6-cyclopropyl-1-oxo-spiro[3H-isoquinoline-4,1′-cyclopropane]-2-yl)acetamide]
- IC50 [1]: < 10 µM
- IC50 [2]: 0.137 µM

Structure (SMILES): O=C(CN1CC2(CC2)c2c(ccc(C(F)(F)F)c2F)C1=O)Nc1ncc(F)cn1 [Example 35, 2-[5-fluoro-1-oxo-6-(trifluoromethyl)spiro[3H-isoquinoline-4,1′-cyclopropane]-2-yl]-N-(5-fluoropyrimidin-2-yl)acetamide]
- IC50 [1]: < 10 µM
- IC50 [2]: 0.366 µM

Structure (SMILES): O=C(CN1CC2(CC2)c2cc(Br)ccc2C1=O)Nc1ccc(OC(F)F)cn1 [Example 36, 2-(6-bromo-1-oxo-spiro[3H-isoquinoline-4,1′-cyclopropane]-2-yl)-N-[5-(difluoromethoxy)-2-pyridyl]acetamide]
- IC50 [1]: < 10 µM
- IC50 [2]: 2.72 µM

Structure (SMILES): O=Cc1cnc(NC(=O)CN2CC3(CC3)c3cc(Br)ccc3C2=O)c(F)c1 [Example 37, 2-(6-bromo-1-oxo-spiro[3H-isoquinoline-4,1′-cyclopropane]-2-yl)-N-(3-fluoro-5-formyl-2-pyridyl)acetamide]
- IC50 [1]: < 10 µM
- IC50 [2]: 1.32 µM

Structure (SMILES): O=C(CN1CC2(CC2)c2cc(Br)ccc2C1=O)Nc1ncc(F)cc1F [Example 38, 2-(6-bromo-1-oxo-spiro[3H-isoquinoline-4,1′-cyclopropane]-2-yl)-N-(3,5-difluoro-2-pyridyl)acetamide]
- IC50 (IL-1β secretion, PMA-differentiated THP-1 cells, LPS then nigericin stimulation, ELISA read at 450 nm, read-out: Activity): < 10 µM
- IC50 (Table 4, IL-1β secretion, LPS/nigericin-stimulated THP-1 cells, read-out: IC50): 0.449 µM

Structure (SMILES): O=C(CN1CC2(CC2)c2c(ccc(Br)c2F)C1=O)Nc1ncccn1 [Example 39, 2-(6-bromo-5-fluoro-1-oxo-spiro[3H-isoquinoline-4,1′-cyclopropane]-2-yl)-N-(pyrimidin-2-yl)acetamide]
- IC50 [1]: < 10 µM
- IC50 [2]: 0.09 µM

Structure (SMILES): O=C(CN1CC2(CC2)c2c(F)cccc2C1=O)Nc1ncccn1 [Example 40, 2-(5-fluoro-1-oxo-spiro[3H-isoquinoline-4,1′-cyclopropane]-2-yl)-N-(pyrimidin-2-yl)acetamide]
- IC50 [1]: < 10 µM
- IC50 [2]: 8.78 µM

Structure (SMILES): O=C(CN1CC2(CC2)c2c(ccc(Br)c2F)C1=O)Nc1ncc(F)cn1 [Example 41, 2-(6-bromo-5-fluoro-1-oxo-spiro[3H-isoquinoline-4,1′-cyclopropane]-2-yl)-N-(5-fluoropyrimidin-2-yl)acetamide]
- IC50 [1]: < 10 µM
- IC50 [2]: 0.068 µM

Structure (SMILES): O=C(CN1CC2(CC2)c2c(F)cccc2C1=O)Nc1ncc(F)cn1 [Example 42, 2-(5-fluoro-1-oxo-spiro[3H-isoquinoline-4,1′-cyclopropane]-2-yl)-N-(5-fluoropyrimidin-2-yl)acetamide]
- IC50 [1]: < 10 µM
- IC50 [2]: 5.24 µM

Structure (SMILES): O=C(CN1CC2(CC2)c2cc(Br)ccc2C1=O)Nc1ccc2cn[nH]c2c1 [Example 43, 2-(6-bromo-1-oxo-spiro[3H-isoquinoline-4,1′-cyclopropane]-2-yl)-N-(1H-indazol-6-yl)acetamide]
- IC50 [1]: < 10 µM
- IC50 [2]: 0.368 µM

Structure (SMILES): O=C(CN1CC2(CC2)c2cc(Br)ccc2C1=O)Nc1ccc2cc[nH]c2c1 [Example 44, 2-(6-bromo-1-oxospiro[3H-isoquinoline-4,1′-cyclopropane]-2-yl)-N-(1H-indol-6-yl)acetamide]
- IC50 [1]: < 10 µM
- IC50 [2]: 1.26 µM

Structure (SMILES): O=C(CN1CC2(CC2)c2cc(Br)ccc2C1=O)NC1CCc2cn[nH]c2C1 (stereo not drawn) [Example 45, 2-(6-bromo-1-oxospiro[3H-isoquinoline-4,1′-cyclopropane]-2-yl)-N-(4,5,6,7-tetrahydro-1H-indazol-6-yl)acetamide]
- IC50 [1]: < 10 µM
- IC50 [2]: 6.25 µM

Structure (SMILES): CC1(C)CN(CC(=O)N[C@H]2C[C@@](C)(O)C2)C(=O)c2ccc(Br)cc21 [Example 46, 2-(6-bromo-4,4-dimethyl-1-oxo-3H-isoquinolin-2-yl)-N-(cis-3-hydroxy-3-methyl-cyclobutyl)acetamide]
- IC50 [1]: < 10 µM
- IC50 [2]: 1.54 µM

Structure (SMILES): CC(C)(O)CCNC(=O)CN1CC2(CC2)c2cc(Br)ccc2C1=O [Example 47, 2-(6-bromo-1-oxospiro[3H-isoquinoline-4,1′-cyclopropane]-2-yl)-N-(3-hydroxy-3-methylbutyl)acetamide]
- IC50 [1]: < 10 µM
- IC50 [2]: 4.7 µM

Structure (SMILES): O=C(CN1CC2(CC2)c2cc(Br)ccc2C1=O)Nc1ncc(-n2cccn2)cn1 [Example 48, 2-(6-bromo-1-oxospiro[3H-isoquinoline-4,1′-cyclopropane]-2-yl)-N-(5-pyrazol-1-ylpyrimidin-2-yl)acetamide]
- IC50 [1]: < 10 µM
- IC50 [2]: 0.238 µM

Structure (SMILES): CC(C)(O)C12CC(NC(=O)CN3CC4(CC4)c4cc(Br)ccc4C3=O)(C1)C2 [Example 49, 2-(6-bromo-1-oxo-spiro[3H-isoquinoline-4,1′-cyclopropane]-2-yl)-N-[3-(1-hydroxy-1-methyl-ethyl)-1-bicyclo[1.1.1]pentanyl]acetamide]
- IC50 [1]: < 10 µM
- IC50 [2]: 3.01 µM

Structure (SMILES): CC(C)(O)C1CC(NC(=O)CN2CC3(CC3)c3cc(Br)ccc3C2=O)C1 (stereo not drawn) [Example 50, 2-(6-bromo-1-oxospiro[3H-isoquinoline-4,1′-cyclopropane]-2-yl)-N-[3-(2-hydroxypropan-2-yl)cyclobutyl]acetamide]
- IC50 [1]: < 10 µM
- IC50 [2]: 6.44 µM

Structure (SMILES): O=C(CN1CC2(CC2)c2cc(Br)ccc2C1=O)NC12CCC(CC1)OC2 [Example 51, 2-(6-bromo-1-oxo-spiro[3H-isoquinoline-4,1′-cyclopropane]-2-yl)-N-(2-oxabicyclo[2.2.2]octan-4-yl)acetamide]
- IC50 [1]: 10 to 15 µM
- IC50 [2]: 9.07 µM
